Experimental data published in patent publication EP0518769B1, “Ethanolaminebenzoate derivative, process for their preparation and pharmaceutical compositions containing them” (ADIR ET COMPAGNIE, priority 1991, dated 1992).

Key:
[1] = test system: Rats SDCD mâles 52 semaines; assay: Acute treatment by portal perfusion in the conscious rat, with IVGTT; format: in vivo; conditions: 0,25 µg/kg/min×60 min intraportal perfusion; vs Contrôle 57,4 ± 13,7 µU/ml
Excerpt: La technique de perfusion portale chez le rat vigile permet d'étudier l'effet de substances pharmacologiques sur les modifications de la tolérance au glucose adminstré par voie intraveineuse.
L'injection d'agents directement dans la circulation portale permet d'éviter les effets du transit gastrique, d'absorption et de libération d'hormone par la paroi intestinale et ainsi d'explorer : • soit un effet direct sur le tissu hépatique, • soit l'existence d'un relai foie-système nerveux central-tissu périphérique (foie, muscle ou cible endocrine).
Dans cette expérimentation, on a utilisé des rats mâles adultes SPRAGUE DAWLEY par lots de 5 à 12 rats.
Les rats utilisés, agés de 52 semaines, présentent • une diminution de la tolérance au glucose, • une augmentation de l'insulinémie basale, et • une augmentation des lipides plasmatiques.
La stabulation (de 9 à 52 semaines) de ces rats a été réalisée dans une pièce à température régulée de 21 à 22 °C et soumise à un cycle fixe de lumière (de 7 h 30 à 19 h 30) et d'obscurité (de 19 h 30 à 7 h 30). Leur alimentation a consisté en un régime d'entretien (UAR A 03); eau et nourriture ont été fournies "ad libitum", à l'exception du jeûne nocturne précédant les tests où la nourriture était retirée. […]

[2] = test system: Rats SDCD mâles de 52 semaines; assay: Chronic per os treatment (14 days, twice daily) in the male SDCD rat aged 52 weeks; format: in vivo; conditions: 0,5 mg/kg×2 per os, vs Contrôle 1,1 ± 0,14 g/l
Excerpt: Les essais sont réalisés sur des rats qui présentent des anomalies pondérales associées à un hyperinsulisme et une hyperglycéridémie.
Il est recherché : • d'une part l'effet d'un traitement prolongé du produit de l'exemple 1 et de substances de référence sur ces anomalies, et • d'autre part, la consommation du glucose par le tissu adipeux est mesuré à l'état basal et en présence d'insuline (10⁻⁹ M).
On utilise des rats identiques à ceux de l'étude du traitement aigu, (cf. ci-dessus le paragraphe A- 2.1), à savoir des rats SDCD mâles agés de 52 semaines.
9 jours avant le début de l'expérimentation (J₋₉), sont constitués des lots de rats par randomisation stratifiée sur le poids.
5 jours avant le début de l'expérimentation (J₋₅), les rats sont conditionnés par administration d'une solution de gomme.
Le premier jour de l'expérimentation (J₁), les produits à tester sont administrés à différentes doses aux rats 2 fois par jour. Plus précisémment, les produits sont administrés en suspension dans la gomme entre 9 et 10 heures et 16-17 heures pendant 14 jours. Une pesée quotidienne des animaux traités est effectuée.
Le 15ème jour, les rats (à jeun depuis 18 heures) sont sacrifiés par décapitation. Le sang est recueilli directement dans une cupule. Un aliquote (50 µl) est transféré dans 500 µl d'acétate d'uranyl pour dosage de la glycémie. […]

[3] = test system: rats agés de 12 semaines, insulinorésistance induite par l'amyline; assay: Insulin resistance induced by intraportal amylin perfusion, with IVGTT; format: in vivo, rat; conditions: Perfusion amyline + 0,75µg/kg/min pendant 60 mn
Excerpt: A J₇ avant le début de l'expérimentation, les rats sont anesthésiés à la kétamine (IMALGENE 1000 - Rhône MERIEUX), et un cathéter en silastic (602-135, médical grade, DOW CORNING MIDLAND) est implanté dans la veine porte hépatique [cf. Strubbe J.H., Wolsink J.G., Schutte A.M., Balkan B., and Prins A.J.A. : Hepatic-portal and cardiac infusion of CKK-8 and glucagon induce different effects on feeding. Physiology and Behavior 46,643-646 (1989)] pour la perfusion du soluté physiologique (jour contrôle) puis du produit à tester. Ils sont alors placés individuellement dans des cages en plexiglas. • Après récupération, soit environ 10 jours plus tard, un second cathéter en silastic (602-155, médical grad, DOW CORNING MIDLAND) est introduit jusque dans l'oreillette droite par la veine jugulaire droite [cf. Steffens A.B : A Method for frequent sampling of blood and continuous infusion of fluids in the rat without disturbing the animal. Physiology and behavior 4, 833-836 (1969)]. Lors des test, les différents prélèvements sanguins et l'injection intra-cardiaque du bolus glucosé seront effectués à l'aide de ce cathéter. Pendant les deux interventions chirurgicales, les cathéters sont glissés sous la peau et extériorisés au-dessus de la tête au moyen d'une aiguille limée recourbée et bouchée par un capuchon de polyéthylène (PE) fermé à la bougie. • 0,4 ml d'une solution d'héparine à 500 U/ml (ROUSSEL UCLAF) suivie de 0,1 ml de PVP (Solution de Polyvinylpyrrolidone à 30 % - PM 25000 - MERCK) sont introduits dans les cathéters avant la fermeture par le capuchon de polyéthylène. La viscosité du PVP permet d'éviter un reflux du sang dans le cathéter. • La veille de chaque expérience, les rats sont soumis à un jeûne nocturne de 18 heures. Le jour de l'expérience, ces rats sont pesés et le bon fonctionnement des cathéters vérifié. • Afin d'éliminer le stress du branchement des cathéters sur les aiguilles extériorisées sur le dessus de la tête, 20 minutes de repos sont nécessaires avant de commencer l'expérience. • Les perfusions intraportales, réalisées à l'aide d'un cathéter en polyéthylène N° 3 durent 60 minutes; elles ont un débit constant de 2 ml/heure soit envirion 0,033 ml/minute, assuré par un perfuseur BRAUN. […]

LDL [4] = assay: LDL oxidation in vitro by copper; format: biochemical; conditions: à 10⁻⁴ M
Excerpt: (§1) Une étude comparative entre le produit de l'exemple 1 et les substances de référence (Benfluorex, Diméthylbiguanide) sur l'oxydation des LDL in vitro a été réalisée.

LDL [5] = assay: LDL oxidation in vitro by monocytes; format: cell-based; conditions: à 10⁻⁴ M
Excerpt: as §1

Row | Compound | Insulinémie au pic Variation % [1] | Cholestérol variation % [2] | Tolérance au glucose K.10^-2 ([3]; Controle 3,54±0,24, amyline alone 1,71±0,27) | Insulinémie basale ([3]; Controle 5,93±0,48, amyline alone 6,87±0,77) | Insulinémie 24 min après glucose ([3]; Controle 8,86±0,77, amyline alone 15,28±1,90) | Insulinémie au pic ([3]; Controle 24,80±1,86, amyline alone 23,54±1,7) | Oxydation des LDL in vitro par le cuivre (LDL [4]) | Oxydation des LDL in vitro par les monocytes (LDL [5])
1 | COC(CNCCOC(=O)c1ccc(CCNC(=O)CC2c3ccccc3-c3ccccc32)cc1)c1cccc(C(F)(F)F)c1 (single isomer, unassigned) [Exemple 1, Isomère lévogyre du chlorhydratede para-[2-(α-fluorén-9-ylacétylamino) éthyl] benzoatede 2-[(β-méthoxy β-métatrifluorométhylphényl) éthylamino] éthyle] | 0% | 0% | 3,79±0,38 | 8,26±1,15 µU/ml | 15±1,86 µU/ml | 23,60±2,17 µU/ml | – | –
2 | CC(Cc1cccc(C(F)(F)F)c1)NCCOC(=O)c1ccccc1 (stereo not drawn) [Benfluorex, 1-(3-trifluorométhylphényl)-2-(β-benzoyloxyéthyl)aminopropane] | – | – | – | – | – | – | Inactif à 10⁻⁴ M | Inactif à 10⁻⁴ M
